Columns and labels:
[1] = test system: cultured human endothelial cells; conditions: cited from earlier work
[2] = test system: chick embryo chorioallantoic membranes (CAM); conditions: cited from earlier work
[3] = test system: phospholipase C (PLC); conditions: cited from earlier work
[4] = test system: Smad3 mutant mice; experiment: Colorectal tumor development in Smad3 mutant mice given antibiotics in drinking water; format: in vivo
Description: I. Orally-delivered aminoglycosides reduce development of colon cancer in animal models predisposed to colon neoplasia. Smad3 mutant and APC/MIN mice are fed on a standard laboratory diet, with aminoglycoside antibiotics added to the water. […] Metronidazole was diluted in sterile drinking water to a final concentration of 0.5 mg/ml. The same concentrations are used for either combined or separate drug trials.
Smad3 mutant mice are maintained in 129Sv strain; APC/MIN mice are maintained in C57BL/6J. Both Smad3 mutant and APC/MIN mice are started on antibiotics at 5 weeks of age (range: 4-6 weeks). Mice are monitored and scored for survival and visible rectal tumors. Mice are sacrificed when showing severe distress (typically rectal prolapse with significant dehydration,. hypokinesis, cachexia). At sacrifice mice are dissected and their overall state assessed. Large intestines were harvested, opened longitudinally, and tumor number, location, and size recorded.

[5] = test system: colorectal polyps; experiment: Double-blind, placebo-controlled study of colorectal polyps in patients with familial adenomatous polyposis; format: in vivo, human; conditions: 1 or 2 g/day orally, after six months, change from base line
Description: II. […] All patients undergo endoscopy at the beginning and end of the study. The number and size of polyps is determined from photographs and videotapes; the response to treatment is expressed as the mean percent change from base line.

[6] = test system: colorectal adenomas; experiment: Double-blind, placebo-controlled trial of colorectal adenomas in patients with previous colorectal cancer; format: in vivo, human; conditions: daily use of 1 or 2 g, patients with a history of colorectal cancer
Text: III. Orally-delivered aminoglycosides reduce development of colorectal adenomas in patients with previous colorectal cancer. […] We determine the proportion of patients with adenomas, the number of recurrent adenomas, and the time to the development of adenoma between randomization and subsequent colonoscopic examinations. Relative risks are adjusted for age, sex, cancer stage, the number of colonoscopic examinations, and the time to first colonoscopy.

[7] = test system: cultured angiogenin-secreting tumor cells; conditions: injected, mice; cited from earlier work
[8] = test system: azoxymethane (AOM) and 1,2-dimethyl hydrazine (DMH)-induced colon cancers; conditions: AOM and DMH chemical carcinogenesis models; cited from earlier work

Molecule: COc1ccc2c(c1)CC[C@@H]1[C@@H]2CC[C@]2(C)[C@@H](NCCCCCCN3C(=O)C=CC3=O)CC[C@@H]12 [U-73122]
- angiogenin-induced cell proliferation [1]: similarly inhibited angiogenin-induced cell proliferation and angiogenesis
- angiogenin-induced angiogenesis / anti-angiogenic activity [2]: similarly inhibited angiogenin-induced cell proliferation and angiogenesis
- PLC inhibition [3]: PLC inhibitor

Molecule: NCC[C@H](O)C(=O)N[C@@H]1C[C@H](N)[C@@H](O[C@H]2O[C@H](CN)[C@@H](O)[C@H](O)[C@H]2O)[C@H](O)[C@H]1O[C@H]1O[C@H](CO)[C@@H](O)[C@H](N)[C@H]1O [amikacin]
- angiogenin-induced angiogenesis / anti-angiogenic activity [2]: lack anti-angiogenic activity

Molecule: Cc1ncc([N+](=O)[O-])n1CCO [metronidazole]
- tumor development compared with non-treated controls ([4]; 0.5 mg/ml in drinking water): not significantly different from non-treated controls

Molecule: NC[C@@H]1O[C@H](O[C@H]2[C@@H](O)[C@H](O[C@@H]3[C@@H](O)[C@H](N)C[C@H](N)[C@H]3O[C@H]3O[C@H](CO)[C@@H](O)[C@H](O)[C@H]3N)O[C@@H]2CO)[C@H](N)[C@@H](O)[C@@H]1O [paromomycin]
- reduction in the mean number of colorectal polyps [5]: ~30%
- reduction in the polyp burden (the sum of polyp diameters) [5]: ~30%
- occurrence of new colorectal adenomas [6]: decreases the occurrence of new colorectal adenomas
- angiogenin-induced angiogenesis / anti-angiogenic activity [2]: lack anti-angiogenic activity

Molecule: [H]/N=C(/N)N[C@H]1[C@H](O)[C@@H](O)[C@H](O[C@@H]2O[C@@H](C)[C@](O)(C=O)[C@H]2O[C@@H]2O[C@@H](CO)[C@H](O)[C@@H](O)[C@@H]2NC)[C@@H](N/C(N)=N\[H])[C@@H]1O [streptomycin]
- angiogenin-induced angiogenesis / anti-angiogenic activity [2]: lack anti-angiogenic activity

Molecule: gentamicin
- angiogenin-induced angiogenesis / anti-angiogenic activity [2]: lack anti-angiogenic activity

Molecule: neomycin
- mice in which development of tumors was prevented ([4]; oral treatment, at 24 weeks, 9 of 10 untreated mice developed colorectal tumors): 11 of 12
- reduction in the mean number of colorectal polyps [5]: ~30%
- reduction in the polyp burden (the sum of polyp diameters) [5]: ~30%
- occurrence of new colorectal adenomas [6]: decreases the occurrence of new colorectal adenomas
- angiogenin-induced cell proliferation [1]: able to reduce angiogenin-induced cell proliferation and angiogenesis
- angiogenin-induced angiogenesis / anti-angiogenic activity [2]: able to reduce angiogenin-induced cell proliferation and angiogenesis
- PLC inhibition [3]: inhibits PLC
- growth of transplanted angiogenin-secreting tumor cells [7]: able to reduce growth
- incidence of colon adenocarcinomas [8]: may actually increase the incidence of colon adenocarcinomas
